No end group written: not given here.
How the values were obtained:
[1] = system: MHC II molecules on dendritic cells (CD11c+ cells); assay: In vivo MHC class II loading assay (DR2tg mice); set-up: species or system HLA-DR2-transgenic mice; conditions: 100 µg peptide s.c., spleen 2 h post injection, 72 h co-culture, vs PBS-injected control
Experimental: FIG. 1: Peptide 9K1K is correctly loaded on MHC class II in vivo. Response of peptide-specific CD4+ T cells towards peptide loaded in vivo on dendritic cells is shown. HLA-DR2-transgenic mice were injected subcutaneously with 100 µg of 9K1K peptide. 2 h post injection, spleens were dissected and CD11 c+ cells (dendritic cells) were isolated. These CD11c+ cells were co-cultured with peptide-specific CD4+ cells for 72 h at 37° C. IFNy was measured in the supernatant of these cultures to evaluate the response to peptide by the CD4+ T cells. (* p<0.05 Mann-Whitney U-test)
When 100 µg of peptide 9K1K was injected in DR2tg mice or when peptide 17JK or 15N3K was injected in DR3tg mice, these peptides could be detected on dendritic cells (CD11c+ cells) in the spleens of these mice 2 h post injection. Activation (IFNY production) of peptide-specific CD4+ T cells by the isolated CD11 c+ cells was used as a read-out. […]
DR3tg or DR2tg mice were injected with 100 µg of peptide in 100 µl PBS subcutaneously (s.c.) in the flank. […] After 72 hours, supernatant of these co-cultures was collected and CD4+ T cell activation was analysed by IFNy ELISA (R&D Systems, Abingdon, UK). In a parallel experiment, CD4+ T cell responses towards peptide added in vitro were assessed to make sure the T cells recognize the peptides presented by the CD11 c+ cells.

[2] = system: S-Ag-induced cell activation (IFNy production of LN cells and splenocytes); assay: Ex vivo tolerization experiment (DR2tg mice); format: in vivo
Experimental: FIG. 4: 9K1K alone induces tolerance towards S-Ag protein in DR2tg mice. Mice were injected subcutaneously in the flank with 0,1 µg/ml, 1 µg/ml and 10 µg/ml 9K1K on days -15, -13 and -11, followed by 3 injections of 100 µg/ml on days -8, -6 and -4 (escalating dose regime). On day 0, mice were immunized subcutaneously at the base of the tail with antigen/CFA. Mice were sacrificed 10 days after immunization to measure activation of LN cells and splenocytes upon S-Ag restimulation. IFNy concentration was measured in the culture supernatant as an indication of cell activation. Data represent mean ± SEM of the concentration of IFNy for the PBS-treated mice (black lines) and 9K1K-treated mice (grey lines). Two-way ANOVA was used to measure overall treatment effects on T cell activation. Dunnett’s multiple comparisons test was used and significant differences are indicated in the graphs (** p<0.01; **** p<0.0001). The % inhibition of IFNy production as compared to the control group is indicated in the graphs. (A) Tolerization against S-Ag in LN. IFNy production expressed as IFNy concentration (pg/ml). (B) Tolerization against S-Ag in spleen. IFNy production expressed as IFN-Y concentration (pg/ml). LN, lymph nodes. Data representative of 3 independent experiments.
FIG. 8: Treatment with peptide cocktail ATX975 reduces S-Ag-induced immune cell activation in DR2tg mice more efficiently than treatment with 9K1K alone. Mice were injected subcutaneously in the flank with 0.015 nmol, 0.15 nmol and 1.5 nmol of peptide on days -15, -13 and -11 respectively, followed by 3 injections of 15 nmol peptide on days -8, -6 and -4 (dose escalation schedule). For treatment with the cocktail (ATX975) containing 3 peptides, these doses were given per peptide (reaching a total top dose of 45 nmol peptide). On day 0, mice were immunized subcutaneously at the base of the tail with antigen/CFA. Mice were sacrificed 10 days after immunization to measure activation of splenocytes upon S-Ag restimulation. […] IFN-y production expressed as IFN-y concentration (pg/ml). […]

[3] = target: HLA-DRA1*0101, DRB1*1501 (DR2) (Homo sapiens, UniProt P01903+P01911); assay: DR2
Experimental: Table printed on a drawing sheet, Figure 9
The patent's description of the figure: FIG. 9: Diverse patterns of in vitro peptide-MHC II binding for peptides 9K1, 17JK and 15N3K. Binding of peptides 9K1, 17JK and 15N3K to recombinant HLA-DRA1*0101, DRB1*0101 (DR1), DRB1*1501 (DR2), DRB1*0301 (DR3), DRB1*0401 (DR4), DRB1*1101 (DR11), DRB1*0405 (DR4*05) and DRB1*0901 (DR9) was assessed in vitro. IC50 values (µM) are presented and colour-coded per HLA-DR molecule. Low values (green) indicate strong binding, high values (red) indicate low(er) binding.
FIG. 9 depicts IC50 (µM) values of peptides 9K1K, 17JK and 15N3K binding to the indicated HLA-DR molecules and competing with a known competitor peptide. Values should be compared only within each HLA-DR molecule. Low IC50 values (green) indicate the strongest binder per HLA-DR molecule. Highest values per HLA-DR molecule (red) are indicative of the lowest binder for that HLA-DR molecule. Intermediate values are indicated in orange. […]
First copying reader's note: The sheet prints no unit; per the patent description the values are IC50 (µM) for peptide binding to the named HLA-DR molecules, with cell shading coding relative binding strength per HLA-DR molecule.
Where the first naming reader finds the target: description_of_the_figure: recombinant HLA-DRA1*0101, DRB1*0101 (DR1), DRB1*1501 (DR2)

Substance: KKKAFVEQVANVVLKKK-NH2 [9K1K, KKKAFVEQVANVVLKKK]
- CD4+ T cell activation (IFNy) by CD11c+ cells isolated from spleen of injected mice [1]: significant CD4+ T cell activation
- reduction of S-Ag-induced cell activation (IFNy) in spleens ([2]; dose escalation to 15 nmol per peptide s.c., cocktail vs single peptide, vs control mice (FIG. 8)): 51%
- reduction of S-Ag-induced cell activation (IFNy) in lymph nodes ([2]; single peptide escalating dose s.c., vs PBS, 10 days after immunization (FIG. 4A)): 77%
- reduction of S-Ag-induced cell activation (IFNy) in spleen ([2]; single peptide escalating dose s.c., vs PBS, 10 days after immunization (FIG. 4B)): 70%
- IC50 [3]: 520 nM
